# Data from patent US20250268854A1, “2-AMINO-5,5-DIMETHYLHEXANOIC ACID DERIVATIVES AS SORTILIN MODULATORS FOR USE IN THE TREATMENT OF DISEASE OF THE CENTRAL NERVOUS SYSTEM” (c/o Vesper Bio ApS, priority 2021, published 2025).
# Where a name gives a salt, the structure may show the parent alone.
# Molecular target: h-Sortilin (Homo sapiens (Human), UniProt Q99523)
# Experiment: Neurotensin (NTS) scintillation proximity assay (SPA): displacement of [3H]-neurotensin binding
# Settings: 150 nM 6his-Sortilin, 5 nM [3H]-Neurotensin; average of at least 2 determinations
# Protocol: The exemplified compounds of the invention were tested in a Neurotensin (NTS) scintillation proximity assay (SPA). NTS, which is a 13 amino acid neuropeptide, is a sortilin ligand. The IC50 is a measure of the amount of the compound required to inhibit the binding of NTS to sortilin by 50%. […] Compound affinity was determined by measuring the displacement of [^3H]-neurotensin binding to h-Sortilin in SPA format. […] IC50 values were calculated by nonlinear regression using the sigmoid concentration-response (variable slope) using CDD Vault software. All values reported are average of at least 2 determinations.
# h-Sortilin, sequence (Q99523 78-831): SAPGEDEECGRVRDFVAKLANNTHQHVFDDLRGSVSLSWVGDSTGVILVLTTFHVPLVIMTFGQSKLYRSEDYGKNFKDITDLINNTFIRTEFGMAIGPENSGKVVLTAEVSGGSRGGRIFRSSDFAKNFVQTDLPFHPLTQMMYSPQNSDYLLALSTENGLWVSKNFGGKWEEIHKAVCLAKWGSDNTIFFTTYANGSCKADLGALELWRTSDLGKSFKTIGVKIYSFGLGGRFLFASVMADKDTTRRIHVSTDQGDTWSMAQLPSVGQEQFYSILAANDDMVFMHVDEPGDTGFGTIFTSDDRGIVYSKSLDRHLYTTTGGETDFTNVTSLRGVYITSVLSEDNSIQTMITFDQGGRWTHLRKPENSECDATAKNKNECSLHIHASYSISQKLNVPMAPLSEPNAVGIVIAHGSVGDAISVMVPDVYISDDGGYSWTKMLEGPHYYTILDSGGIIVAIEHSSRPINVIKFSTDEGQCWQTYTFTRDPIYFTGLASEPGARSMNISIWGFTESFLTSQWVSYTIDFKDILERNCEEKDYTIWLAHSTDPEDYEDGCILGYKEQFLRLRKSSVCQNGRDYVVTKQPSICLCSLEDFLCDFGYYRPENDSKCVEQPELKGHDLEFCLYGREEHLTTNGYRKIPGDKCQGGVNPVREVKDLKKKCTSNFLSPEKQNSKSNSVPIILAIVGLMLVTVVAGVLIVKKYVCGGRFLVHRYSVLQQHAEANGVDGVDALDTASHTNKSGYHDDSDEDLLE
row,SMILES,IC50 [nM]
1,"Cn1ncc2c(CN[C@@H](CCC(C)(C)C)C(=O)O)cccc21 [Example 61, (2S)-5,5-dimethyl-2-{[(1-methyl-1H-indazol-4-yl)methyl]amino}hexanoic acid]",2830
2,"CC(C)(C)CC[C@H](NCc1cccc2[nH]ccc12)C(=O)O [Example 62, (2S)-2-{[(1H-indol-4-yl)methyl]amino}-5,5-dimethylhexanoic acid]",> 9980
3,Cn1ccc2ccc(CN[C@@H](CCC(C)(C)C)C(=O)O)cc21 [Example 67],3310
4,Cn1ccc2cccc(CN[C@@H](CCC(C)(C)C)C(=O)O)c21 [Example 68],1200
5,"CC(C)(C)CC[C@H](NCc1cccnc1)C(=O)O [Example 71, (2S)-5,5-dimethyl-2-{[(pyridin-3-yl)methyl]amino}hexanoic acid]",1130
6,Cc1ccc(CN[C@@H](CCC(C)(C)C)C(=O)O)cn1 [Example 72],1240
7,"CC(C)(C)CC[C@H](NCc1ccc(Cl)cc1)C(=O)O [Example 76, (2S)-2-{[(4-chlorophenyl)methyl]amino}-5,5-dimethylhexanoic acid]",790
8,"CC(C)(C)CC[C@H](NCc1cncc(Br)c1)C(=O)O [Example 77, (2S)-2-{[(5-bromopyridin-3-yl)methyl]amino}-5,5-dimethylhexanoic acid]",600
9,COc1ccc(CN[C@@H](CCC(C)(C)C)C(=O)O)c2ccccc12 [Example 79],950
10,CC(C)(C)CC[C@H](NCc1cncc2ccccc12)C(=O)O [Example 80],790
11,CC(C)(C)CC[C@H](NCc1cccc2cnccc12)C(=O)O [Example 81],790
12,"Cc1cccc(CN[C@@H](CCC(C)(C)C)C(=O)O)c1C [Example 83, (2S)-2-{[(2,3-dimethylphenyl)methyl]amino}-5,5-dimethylhexanoic acid]",700
13,COc1ccc2cc(CN[C@@H](CCC(C)(C)C)C(=O)O)ccc2c1 [Example 85],1050

# Further lines, results first:
row,IC50 [nM],SMILES
1,790,COc1cncc(CN[C@@H](CCC(C)(C)C)C(=O)O)c1 [Example 86]
2,530,COc1cc(CN[C@@H](CCC(C)(C)C)C(=O)O)ccn1 [Example 87]
3,790,"CC(C)(C)CC[C@H](NCc1ccnc(Cl)c1F)C(=O)O [Example 89, (2S)-2-{[(2-chloro-3-fluoropyridin-4-yl)methyl]amino}-5,5-dimethylhexanoic acid]"
4,390,"COc1ccc(CN[C@@H](CCC(C)(C)C)C(=O)O)cc1O [Example 91, (2S)-2-{[(3-hydroxy-4-methoxyphenyl)methyl]amino}-5,5-dimethylhexanoic acid]"
5,1630,Cc1cnccc1CN[C@@H](CCC(C)(C)C)C(=O)O [Example 93]
6,690,Cc1cncc(CN[C@@H](CCC(C)(C)C)C(=O)O)c1 [Example 95]
7,380,"Cc1nc2cc(CN[C@@H](CCC(C)(C)C)C(=O)O)ccc2s1 [Example 100, (2S)-5,5-dimethyl-2-{[(2-methyl-1,3-benzothiazol-5-yl)methyl]amino}hexanoic acid]"
8,590,"Cn1ccc2cc(CN[C@@H](CCC(C)(C)C)C(=O)O)cnc21 [Example 106, (2S)-5,5-dimethyl-2-[({1-methyl-1H-pyrrolo[2,3-b]pyridin-5-yl}methyl)amino]hexanoic acid]"
9,370,"COc1ccc([C@H](C)N[C@@H](CCC(C)(C)C)C(=O)O)cc1OC [Example 108, (S)-2-(((S)-1-(3,4-dimethoxyphenyl)ethyl)amino)-5,5-dimethylhexanoic acid]"
10,460,"Cn1cnc2cc(CN[C@@H](CCC(C)(C)C)C(=O)O)ccc21 [Example 110, (2S)-5,5-dimethyl-2-{[(1-methyl-1H-1,3-benzodiazol-5-yl)methyl]amino}hexanoic acid]"
11,430,"CC(C)(C)CC[C@H](NCc1ccc2occc2c1)C(=O)O [Example 117, (2S)-2-{[(1-benzofuran-5-yl)methyl]amino}-5,5-dimethylhexanoic acid]"
12,880,Cc1cc(CN[C@@H](CCC(C)(C)C)C(=O)O)ccn1 [Example 132]
13,820,"COc1ccc(CN[C@@H](CCC(C)(C)C)C(=O)O)cc1 [Example 133, (2S)-2-{[(4-methoxyphenyl)methyl]amino}-5,5-dimethylhexanoic acid]"
14,1320,"CC(C)(C)CC[C@H](NCc1cccc2[nH]ncc12)C(=O)O [Example 134, (2S)-2-{[(2H-indazol-4-yl)methyl]amino}-5,5-dimethylhexanoic acid]"
15,420,"CCn1ccc2c(CN[C@@H](CCC(C)(C)C)C(=O)O)cccc21 [Example 135, (2S)-2-{[(1-ethyl-1H-indol-4-yl)methyl]amino}-5,5-dimethylhexanoic acid]"
16,740,"Cn1cnc2c(CN[C@@H](CCC(C)(C)C)C(=O)O)cccc21 [Example 138, (S)-5,5-dimethyl-2-(((1-methyl-1H-benzo[d]imidazol-4-yl)methyl)amino)hexanoic acid, Mesylic acid]"
17,570,"CC(=O)c1cccc(CN[C@@H](CCC(C)(C)C)C(=O)O)c1 [Example 139, (2S)-2-{[(3-acetylphenyl)methyl]amino}-5,5-dimethylhexanoic acid]"

# Same assay, conditions: 150 nM 6his-Sortilin, 5 nM [3H]-Neurotensin; average of at least 2 determinations; HCl
row,SMILES,IC50 [nM]
1,"CC(N[C@@H](CCC(C)(C)C)C(=O)O)c1cncnc1 (stereo partly drawn) [Example 141, (2S)-5,5-dimethyl-2-((1-(pyrimidin-5-yl)ethyl)amino)hexanoic acid, HCl]",640
2,"CC(N[C@@H](CCC(C)(C)C)C(=O)O)c1cncnc1 (stereo partly drawn) [Example 143, (2S)-5,5-dimethyl-2-((1-(pyrimidin-5-yl)ethyl)amino)hexanoic acid, HCl]",890
